Entries after “also recorded” stand apart in the source; their conditions may differ. Where two headings read alike, the source gives them in different places.
How the values were obtained:
[1] = for nirmatrelvir concentration in dialysate sample: 60 min after nirmatrelvir 15 mg/kg i.v., representative sample
[2] = for nirmatrelvir concentration in dialysate sample: 60 min after nirmatrelvir 15 mg/kg i.v., representative sample; remark: listed apart in the source
[3] = for Autosampler stability: 4°C for 6 hours; for Long-term stability: -20°C for 1 month; for Bench-top stability: room temperature for 6 hours; for Freeze‒thaw stability: three cycles
[4] = test system: SARS-CoV-2; set-up: method as in PMID 34726479; details: 90% inhibition of viral replication, cited from earlier work
[5] = oral; cited from earlier work
[6] = test system: zebrafish embryo; details: zebrafish embryo model; therapeutic doses in humans; cited from earlier work
[7] = PBPK model LeiCNS-PK3.0; recommended dosing regimen; cited from earlier work
[8] = in vivo; details: female, Sprague-Dawley, rat, iv, pregnant rats; for AUC(0-t): AUClast; for Kp: AUCtissue/AUCblood (maternal blood-to-tissue transfer ratio); for clearance: CL (clearance); for MRT: MRT (mean residence time); for half-life: t1/2 (elimination half-life)
[9] = in vivo; details: male, Sprague-Dawley, rat, iv, 15 mg/kg; for AUC(0-t): AUClast; for AUC(0-t) / clearance / Cmax / MRT / Tmax / half-life: male rats; for clearance: CL (clearance); for MRT: MRT (mean residence time); for half-life: t1/2 (elimination half-life)
[10] = in vivo; details: female, Sprague-Dawley, rat, iv, 15 mg/kg; for AUC(0-t): AUClast; for AUC(0-t) / clearance / Cmax / MRT / Tmax / half-life: nonpregnant female rats; for clearance: CL (clearance); for MRT: MRT (mean residence time); for half-life: t1/2 (elimination half-life)
[11] = amniotic fluid dialysate, 5 ng/mL
[12] = amniotic fluid dialysate, 250 ng/mL
[13] = male rat blood dialysate, 5 ng/mL
[14] = male rat blood dialysate, 250 ng/mL
[15] = male rat brain dialysate, 5 ng/mL
[16] = male rat brain dialysate, 250 ng/mL
[17] = pregnant rat maternal blood dialysate, 5 ng/mL
[18] = pregnant rat maternal blood dialysate, 250 ng/mL
[19] = 15 mg/kg, amniotic fluid, nirmatrelvir 15 mg/kg i.v. alone
[20] = 15 mg/kg, amniotic fluid, nirmatrelvir 15 mg/kg i.v. plus ritonavir 7 mg/kg i.v.
[21] = 15 mg/kg, fetus, nirmatrelvir 15 mg/kg i.v. alone
[22] = 15 mg/kg, fetus, nirmatrelvir 15 mg/kg i.v. plus ritonavir 7 mg/kg i.v.
[23] = 15 mg/kg, maternal blood, nirmatrelvir 15 mg/kg i.v. alone
[24] = 15 mg/kg, maternal blood, nirmatrelvir 15 mg/kg i.v. plus ritonavir 7 mg/kg i.v.
[25] = 15 mg/kg, placenta, nirmatrelvir 15 mg/kg i.v. alone
[26] = 15 mg/kg, placenta, nirmatrelvir 15 mg/kg i.v. plus ritonavir 7 mg/kg i.v.
[27] = blood, nirmatrelvir 15 mg/kg i.v. alone
[28] = blood, nirmatrelvir 15 mg/kg i.v. plus ritonavir 7 mg/kg i.v.
[29] = brain, nirmatrelvir 15 mg/kg i.v. alone
[30] = brain, nirmatrelvir 15 mg/kg i.v. plus ritonavir 7 mg/kg i.v.

Compound: CC(C)(C)[C@H](NC(=O)C(F)(F)F)C(=O)N1C[C@H]2[C@@H]([C@H]1C(=O)N[C@H](C#N)C[C@@H]1CCNC1=O)C2(C)C [Nirmatrelvir]
- nirmatrelvir concentration in dialysate sample ([1]; amniotic fluid dialysate): 27.61 ng/mL
- nirmatrelvir concentration in dialysate sample ([1]; fetus dialysate): 37 ng/mL
- nirmatrelvir concentration in dialysate sample ([1]; maternal blood dialysate): 344.8 ng/mL
- nirmatrelvir concentration in dialysate sample ([1]; placenta dialysate): 95.13 ng/mL
- nirmatrelvir level in conceptus (fetus, placenta, amniotic fluid) versus EC90 ([1]; pregnant rats, regular dose of Paxlovid): higher than the EC90
- nirmatrelvir concentration in dialysate sample ([2]; blood dialysate): 78.01 ng/mL
- nirmatrelvir concentration in dialysate sample ([2]; brain dialysate): 36.36 ng/mL
- protein unbound nirmatrelvir concentrations in blood and brain versus EC90 ([2]; male rats): all higher than the EC90
- increase of Cmax in blood, combined vs alone (nonpregnant female rats, blood, coadministration with ritonavir vs nirmatrelvir alone): threefold
- protein unbound nirmatrelvir concentrations in blood and brain versus EC90 (nonpregnant rats): all higher than the EC90
- Autosampler stability [3, 11]: 101.84 ± 1.89%
- Long-term stability [3, 11]: 97.21 ± 0.39%
- Bench-top stability [3, 11]: 104.82 ± 1.50%
- Freeze‒thaw stability [3, 11]: 107.43 ± 5.37%
- Autosampler stability [3, 12]: 102.44 ± 2.35%
- Long-term stability [3, 12]: 93.43 ± 1.54%
- Bench-top stability [3, 12]: 98.60 ± 1.46%
- Freeze‒thaw stability [3, 12]: 99.39 ± 4.32%
- Autosampler stability ([3]; fetus dialysate, 5 ng/mL): 95.10 ± 0.47%
- Long-term stability ([3]; fetus dialysate, 5 ng/mL): 95.20 ± 1.21%
- Bench-top stability ([3]; fetus dialysate, 5 ng/mL): 102.37 ± 2.51%
- Freeze‒thaw stability ([3]; fetus dialysate, 5 ng/mL): 107.56 ± 0.63%
- Autosampler stability ([3]; fetus dialysate, 250 ng/mL): 97.12 ± 1.94%
- Long-term stability ([3]; fetus dialysate, 250 ng/mL): 91.79 ± 1.56%
- Bench-top stability ([3]; fetus dialysate, 250 ng/mL): 101.02 ± 0.48%
- Freeze‒thaw stability ([3]; fetus dialysate, 250 ng/mL): 98.02 ± 2.49%
- Autosampler stability [3, 13]: 95.56 ± 6.20%
- Long-term stability [3, 13]: 89.61 ± 1.00%
- Bench-top stability [3, 13]: 104.5 ± 1.73%
- Freeze‒thaw stability [3, 13]: 100.3 ± 3.40%
- Autosampler stability [3, 14]: 94.23 ± 4.18%
- Long-term stability [3, 14]: 88.54 ± 1.07%
- Bench-top stability [3, 14]: 97.60 ± 0.73%
- Freeze‒thaw stability [3, 14]: 88.57 ± 0.33%
- Autosampler stability [3, 15]: 92.51 ± 2.01%
- Long-term stability [3, 15]: 90.07 ± 2.77%
- Bench-top stability [3, 15]: 100.6 ± 0.37%
- Freeze‒thaw stability [3, 15]: 99.58 ± 1.02%
- Autosampler stability [3, 16]: 93.59 ± 4.41%
- Long-term stability [3, 16]: 87.36 ± 2.58%
- Bench-top stability [3, 16]: 95.79 ± 0.24%
- Freeze‒thaw stability [3, 16]: 92.01 ± 0.29%
- Autosampler stability ([3]; placenta dialysate, 5 ng/mL): 101.55 ± 6.56%
- Long-term stability ([3]; placenta dialysate, 5 ng/mL): 97.38 ± 0.55%
- Bench-top stability ([3]; placenta dialysate, 5 ng/mL): 100.37 ± 1.24%
- Freeze‒thaw stability ([3]; placenta dialysate, 5 ng/mL): 101.85 ± 4.27%
- Autosampler stability ([3]; placenta dialysate, 250 ng/mL): 98.14 ± 3.84%
- Long-term stability ([3]; placenta dialysate, 250 ng/mL): 88.97 ± 1.33%
- Bench-top stability ([3]; placenta dialysate, 250 ng/mL): 98.87 ± 0.27%
- Freeze‒thaw stability ([3]; placenta dialysate, 250 ng/mL): 100.83 ± 0.95%
- Autosampler stability [3, 17]: 102.98 ± 4.81%
- Long-term stability [3, 17]: 87.18 ± 0.87%
- Bench-top stability [3, 17]: 96.42 ± 2.53%
- Freeze‒thaw stability [3, 17]: 101.21 ± 2.66%
- Autosampler stability [3, 18]: 98.97 ± 4.80%
- Long-term stability [3, 18]: 87.65 ± 1.83%
- Bench-top stability [3, 18]: 98.68 ± 1.18%
- Freeze‒thaw stability [3, 18]: 105.98 ± 2.99%
- unbound EC90 [4]: 0.0905 µg/mL
- EC90 ([4]; unbound): 181 nM
- bioavailability [5]: approximately 50%
- survival rates and morphological defects [6]: does not affect survival rates or induce morphological defects; also recorded: did not affect survival rates or induce morphological defects
- predicted brain penetration / effective concentrations against SARS-CoV-2 [7]: achieves effective concentrations against SARS-CoV-2 in human brain cells
- AUC(0-t) [8, 19]: 4740 ng·h/mL
- AUC(0-t) [8, 20]: 17200 ng·h/mL
- AUC(0-t) [8, 21]: 2830 ng·h/mL
- AUC(0-t) [8, 22]: 5720 ng·h/mL
- AUC(0-t) [8, 23]: 52200 ng·h/mL
- AUC(0-t) [8, 24]: 120000 ng·h/mL
- AUC(0-t) [8, 25]: 8010 ng·h/mL
- AUC(0-t) [8, 26]: 18000 ng·h/mL
- Kp [8, 19]: 0.12 ± 0.03
- Kp [8, 21]: 0.06 ± 0.01
- Kp [8, 25]: 0.15 ± 0.03
- clearance [8, 23]: 5 ± 0.4 mL/min/kg
- clearance [8, 24]: 2.14 ± 0.15 mL/min/kg
- Cmax [8, 19]: 1840 ± 490 ng/mL
- Cmax [8, 20]: 6590 ± 1840 ng/mL
- Cmax [8, 21]: 960 ± 190 ng/mL
- Cmax [8, 22]: 1720 ± 600 ng/mL
- Cmax [8, 23]: 156000 ± 24000 ng/mL
- Cmax [8, 24]: 171000 ± 52300 ng/mL
- Cmax [8, 25]: 3560 ± 320 ng/mL
- Cmax [8, 26]: 4400 ± 820 ng/mL
- MRT [8, 19]: 4.83 h
- MRT [8, 20]: 7.62 h
- MRT [8, 21]: 5.13 h
- MRT [8, 22]: 21.1 h
- MRT [8, 23]: 0.8 h
- MRT [8, 24]: 3.22 h
- MRT [8, 25]: 2.53 h
- MRT [8, 26]: 6.92 h
- Tmax [8, 19]: 1.05 h
- Tmax [8, 20]: 3.6 h
- Tmax [8, 21]: 1.17 h
- Tmax [8, 22]: 3.93 h
- Tmax [8, 25]: 0.667 h
- Tmax [8, 26]: 2.2 h
- half-life [8, 19]: 2.78 ± 0.683 h
- half-life [8, 20]: 4.02 ± 1.75 h
- half-life [8, 21]: 3.03 ± 1 h
- half-life [8, 22]: 13.7 ± 9.1 h
- half-life [8, 23]: 0.25 ± 0.0167 h
- half-life [8, 24]: 0.667 ± 0.117 h
- half-life [8, 26]: 4.27 ± 0.65 h
- Kp ([8]; amniotic fluid, nirmatrelvir 15 mg/kg i.v. plus ritonavir 7 mg/kg i.v.): 0.2 ± 0.07
- Kp ([8]; fetus, nirmatrelvir 15 mg/kg i.v. plus ritonavir 7 mg/kg i.v.): 0.06 ± 0.02
- Kp ([8]; placenta, nirmatrelvir 15 mg/kg i.v. plus ritonavir 7 mg/kg i.v.): 0.13 ± 0.02
- Kp [9]: 0.26 ± 0.03
- AUC(0-t) [9, 27]: 12900 ng·h/mL
- AUC(0-t) [9, 28]: 80500 ng·h/mL
- AUC(0-t) [9, 29]: 3540 ng·h/mL
- AUC(0-t) [9, 30]: 5190 ng·h/mL
- clearance [9, 27]: 21 ± 2.8 mL/min/kg
- clearance [9, 28]: 3.16 ± 0.18 mL/min/kg
- Cmax [9, 27]: 26500 ± 4450 ng/mL
- Cmax [9, 28]: 94500 ± 27600 ng/mL
- Cmax [9, 29]: 2520 ± 320 ng/mL
- Cmax [9, 30]: 2020 ± 350 ng/mL
- MRT [9, 27]: 0.717 h
- MRT [9, 28]: 2.32 h
- MRT [9, 29]: 1.53 h
- MRT [9, 30]: 3.4 h
- Tmax [9, 29]: 0.333 h
- Tmax [9, 30]: 0.45 h
- half-life [9, 28]: 0.833 ± 0.15 h
- half-life [9, 29]: 1.1 ± 0.117 h
- half-life [9, 30]: 2.05 ± 0.367 h
- Kp [10]: 0.21 ± 0.04
- AUC(0-t) [10, 27]: 16800 ng·h/mL
- AUC(0-t) [10, 28]: 69400 ng·h/mL
- AUC(0-t) [10, 29]: 3120 ng·h/mL
- AUC(0-t) [10, 30]: 5280 ng·h/mL
- clearance [10, 27]: 16 ± 2.02 mL/min/kg
- clearance [10, 28]: 3.73 ± 0.29 mL/min/kg
- Cmax [10, 27]: 35600 ± 2110 ng/mL
- Cmax [10, 28]: 107000 ± 7400 ng/mL
- Cmax [10, 29]: 2420 ± 460 ng/mL
- Cmax [10, 30]: 2330 ± 390 ng/mL
- MRT [10, 27]: 0.667 h
- MRT [10, 28]: 1.32 h
- MRT [10, 29]: 1.55 h
- MRT [10, 30]: 2.2 h
- Tmax [10, 29]: 0.333 h
- Tmax [10, 30]: 0.6 h
- half-life [10, 27]: 0.333 ± 0.0333 h
- half-life [10, 28]: 0.417 ± 0.0167 h
- half-life [10, 29]: 1.08 ± 0.117 h
- half-life [10, 30]: 1.07 ± 0.2 h

From article PMC11702666, “The anti-COVID-19 drug Paxlovid crosses biological barriers of the placenta and brain in rats” (npj Viruses, 2024)
